Laboratory results as given in patent publication US20120329787A1, “FUNGICIDAL PYRANONES AND OXAZINONES” (E.I. DU PONT DE NEMOURS AND COMPANY, priority 2011, published 2012).
Marks after values point to notes of the source that are not given here.

Columns and labels:
Type in all cases: in vivo
Septoria nodorum = assay: Test E: Septoria glume blotch, spray on wheat seedlings the day before inoculation; details: 200 ppm test suspension
How it was run: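 Compounds in acetone/water (50/50) with 250 ppm Trem 014 surfactant, sprayed to run-off on wheat seedlings the day before Septoria nodorum inoculation. Tested at 200 ppm (equivalent to 500 g/ha) unless marked 40 ppm.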

Phytophthora infestans = details: 200 ppm test suspension; tomato seedlings
Septoria tritici = assay: Test F: wheat leaf blotch, spray on wheat seedlings the day before inoculation; details: 200 ppm test suspension
How it was run: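 Wheat seedlings sprayed to run-off with 200 ppm (≈500 g/ha) or 40 ppm suspension in acetone/water with 250 ppm Trem 014. Next day inoculated with Septoria tritici spores, held 48 h saturated at 24° C, then 19 days at 20° C before visual disease rating.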

[1] = tested on: Erysiphe graminis f. sp. tritici; assay: Test I: wheat powdery mildew, spray on wheat seedlings the day before inoculation; details: 200 ppm test suspension
How it was run: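 Wheat seedlings sprayed to run-off with compound at 200 ppm (40 ppm where marked; 200 ppm ≈ 500 g/ha) in acetone/water with 250 ppm surfactant. Inoculated next day with E. graminis spore dust; visual disease rating after 7 days at 20° C.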

Botrytis cinerea = assay: Test A: tomato Botrytis, spray on tomato seedlings the day before inoculation; details: 200 ppm test suspension
How it was run: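 Tomato seedlings sprayed to run-off with compound suspension (200 ppm, ≈500 g/ha; some at 40 ppm) in acetone/water with 250 ppm Trem 014, inoculated next day with Botrytis cinerea spores. Held 48 h saturated at 20 °C, then 3 days at 24 °C; disease rated visually.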

Rhizoctonia solani = assay: Test D: turf brown patch, spray on creeping bent grass seedlings the day before inoculation; details: 200 ppm test suspension
Excerpt: General protocol for preparing test suspensions for Tests A-I: the test compounds were first dissolved in acetone in an amount equal to 3% of the final volume and then suspended at the desired concentration (in ppm) in acetone and purified water (50/50 mix by volume) containing 250 ppm of the surfactant Trem® 014 (polyhydric alcohol esters). The resulting test suspensions were then used in Tests A-I. Spraying a 200 ppm test suspension to the point of run-off on the test plants was the equivalent of a rate of 500 g/ha. […] (An asterisk “*” next to the rating value indicates a 40 ppm test suspension was used.) The test suspension was sprayed to the point of run-off on creeping bent grass (Agrostis sp.) seedlings. The following day, the seedlings were inoculated with a bran and mycelial slurry of Rhizoctonia solani (the causal agent of turf brown patch) and incubated in a saturated atmosphere at 27° C. for 48 h, and then moved to a growth chamber at 27° C. for 3 days, after which time disease ratings were made. […] A dash (-) indicates no test results. All results are for 200 ppm except where followed by an asterisk “*”, which indicates a 40 ppm.

[2] = tested on: Puccinia recondita f. sp. tritici; assay: Test H: wheat leaf rust, spray on wheat seedlings the day before inoculation; details: 200 ppm test suspension, sprayed before inoculation
How it was run: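 Wheat seedlings sprayed to run-off with compound suspensions (acetone/water with surfactant; 200 ppm ≈ 500 g/ha, or 40 ppm), inoculated next day with rust spores. Plants kept 24 h in saturated atmosphere at 20 °C, then 6 days in a 20 °C growth chamber before visual disease rating.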

Alternaria solani = assay: Test B: tomato early blight, spray on tomato seedlings the day before inoculation
How it was run: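 Tomato seedlings sprayed to run-off with 200 ppm suspension (40 ppm where asterisked), inoculated next day with Alternaria solani spores. Kept 48 h at 27 °C in saturated atmosphere, then 5 days at 20 °C before visual disease rating.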

[3] = tested on: Puccinia recondita f. sp. tritici; assay: Test G: wheat leaf rust, spray on wheat seedlings after inoculation (curative); details: 200 ppm test suspension, sprayed after inoculation
How it was run: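 Curative test: wheat seedlings inoculated with P. recondita spores, held 24 h saturated at 20 °C then 2 days at 20 °C, then sprayed to run-off with compound suspension (200 ppm ≈ 500 g/ha; asterisk = 40 ppm) in acetone/water with 250 ppm surfactant. Visual disease rating after 4 further days at 20 °C.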

Structure (SMILES)	Test E rating (100 = 100% disease control, 0 = no disease control) (Septoria nodorum) [%]	Test C rating (100 = 100% disease control, 0 = no disease control) (Phytophthora infestans) [%]	Test F rating (100 = 100% disease control, 0 = no disease control) (Septoria tritici) [%]	Test I rating (100 = 100% disease control, 0 = no disease control) [1] [%]	Test A rating (100 = 100% disease control, 0 = no disease control) (Botrytis cinerea) [%]	Test D rating (100 = 100% disease control, 0 = no disease control) (Rhizoctonia solani) [%]	Test H rating (100 = 100% disease control, 0 = no disease control) [2] [%]	Test B rating (100 = 100% disease control, 0 = no disease control) (Alternaria solani; 200 ppm test suspension) [%]	Test B rating (100 = 100% disease control, 0 = no disease control) (Alternaria solani; 40 ppm test suspension (asterisk))	pest or weed control at 200 ppm ([3]; Puccinia recondita, 96 h, read-out: Test G rating (100 = 100% disease control, 0 = no disease control)) [%]	pest or weed control at 200 ppm (Septoria nodorum; Parastagonospora nodorum, 264 h, read-out: Test E rating (100 = 100% disease control, 0 = no disease control)) [%]	pest or weed control at 200 ppm (Septoria tritici; Zymoseptoria tritici, 504 h, read-out: Test F rating (100 = 100% disease control, 0 = no disease control)) [%]	pest or weed control at 200 ppm ([1]; Blumeria graminis, 168 h, read-out: Test I rating (100 = 100% disease control, 0 = no disease control)) [%]	pest or weed control at 200 ppm (Botrytis cinerea; Botrytis cinerea, 120 h, read-out: Test A rating (100 = 100% disease control, 0 = no disease control)) [%]	pest or weed control at 200 ppm ([2]; Puccinia recondita, 168 h, read-out: Test H rating (100 = 100% disease control, 0 = no disease control)) [%]	pest or weed control at 200 ppm (Alternaria solani; Alternaria solani, 168 h, 200 ppm test suspension, read-out: Test B rating (100 = 100% disease control, 0 = no disease control)) [%]	Test G rating (100 = 100% disease control, 0 = no disease control) [3] [%]
Cc1noc(=O)c(-c2cccc(F)c2)c1-c1ccccc1 [Compound 1]	0	0	37	0	0	0	0	–	–	–	–	–	–	–	–	–	–
Cc1noc(=O)c(-c2ccc(Cl)cc2)c1-c1c(F)cccc1F [Compound 2]	0	17	97	92	47	0	0	–	–	–	–	–	–	–	–	–	–
Cc1noc(=O)c(-c2c(F)cc(F)cc2F)c1-c1cccc(F)c1 [Compound 5]	0	0	–	20	0	16	0	54	–	–	–	–	–	–	–	–	–
Cc1noc(=O)c(-c2c(F)ccc(F)c2F)c1-c1ccc(Cl)cc1 [Compound 6]	0	0	–	96	99	0	41	99	–	–	–	–	–	–	–	–	–
Cc1noc(=O)c(-c2c(F)cccc2F)c1-c1ccc(Cl)cc1 [Compound 7]	0	0	–	100	100	75	99	100	–	–	–	–	–	–	–	–	–
Cc1noc(=O)c(-c2c(F)cccc2Cl)c1-c1ccc(Cl)cc1 [Compound 8]	0	0	–	99	100	52	98	99	–	–	–	–	–	–	–	–	–
Cc1ccc(-c2c(C)noc(=O)c2-c2c(F)cc(F)cc2F)cc1 [Compound 9]	0	0	–	96	90	99	96	46	–	–	–	–	–	–	–	–	–
Cc1noc(=O)c(-c2c(F)cc(F)cc2F)c1-c1ccc(Br)cc1 [Compound 10]	0	0	–	99	98	90	95	100	–	–	–	–	–	–	–	–	–
Cc1noc(=O)c(-c2c(F)cc(F)cc2F)c1-c1ccc(F)cc1 [Compound 11]	64	0	–	100	100	26	98	99	–	–	–	–	–	–	–	–	–
Cc1noc(=O)c(-c2c(F)cc(F)cc2F)c1-c1ccc(C(F)(F)F)cc1 [Compound 12]	0	0	–	98	0	0	0	–	99* %	–	–	–	–	–	–	–	–
Cc1noc(=O)c(-c2ccc(F)cc2F)c1-c1ccc(Cl)cc1 [Compound 13]	0	0	–	99	0	0	91	9	–	–	–	–	–	–	–	–	–
Cc1noc(=O)c(-c2ccc(F)cc2Cl)c1-c1ccc(Br)cc1 [Compound 14]	0	0	–	0	0	0	0	5	–	–	–	–	–	–	–	–	–
Cc1noc(=O)c(-c2c(F)cccc2F)c1-c1ccc(Br)cc1 [Compound 15]	0	0	–	98	0	0	91	96	–	–	–	–	–	–	–	–	–
COc1cc(OC)cc(-c2c(-c3c(F)cc(F)cc3F)c(C)oc(=O)c2C)c1 [Compound 55, 4-(3,5-dimethoxyphenyl)-3,6-dimethyl-5-(2,4,6-trifluorophenyl)-2H-pyran-2-one]	–	–	–	–	–	–	–	–	–	100	99	100	100	77	100	100	–
COc1cc(OC)cc(-c2cc(=O)oc(C)c2-c2ccc(F)cc2Cl)c1 [Compound 56]	99	–	100	100	94	–	100	99	–	–	–	–	–	–	–	–	100
